This test deals with Carbonic anhydrase 9 (Homo sapiens, UniProt Q16790).

In general, Ki refers to a dissociation constant, usually derived from enzyme kinetics or from competition with a known ligand. A lower Ki goes with a stronger hold on the target.

Description: Inhibition of catalytic domain of human recombinant carbonic anhydrase IX

Regarding `Cc1ccc(-c2cc(C(F)(F)F)nn2-c2ccc(S(N)(=O)=O)cc2)cc1` [CELECOXIB], the Ki is 16 nM.

The values above are taken from ChEMBL document CHEMBL1141071, “Carbonic anhydrase inhibitors: stacking with Phe131 determines active site binding region of inhibitors as exemplified by the X-ray crystal structure of a membrane-impermeant antitumor sulfonamide complexed with isozyme II” (J Med Chem, 2005).
